row,Compound,melting point
1,Cc1nc2ccc(C(=O)NS(=O)(=O)C(F)(F)F)cc2n1Cc1ccccc1Cl.Cl,332 to 335 °C (dec.)
2,"O=C(O)c1ccc2nc(C3CC3)n(Cc3ccccc3F)c2c1 [Example 18, 6-Carboxy-2-Cyclopropyl-1-(2-Fluorobenzyl)Benzimidazole]",224 to 229 °C
3,"O=C(Nc1ccccn1)c1ccc2nc(C3CC3)n(Cc3ccccc3Cl)c2c1 [Example 28, 1-(2-Chlorobenzyl)-2-Cyclopropyl-6-(2-Pyridylcarbamoyl)Benzimidazole]",206 to 209 °C
4,"CCCc1nc2ccc(C(=O)N(C)c3ccccn3)cc2n1Cc1ccccc1Cl [Example 37, 1-(2-Chlorobenzyl)-6-[N-Methyl-N-(2-Pyridyl)carbamoyl]-2-n-Propylbenzimidazole]",143 to 146 °C
5,"CCCCc1nc2ccc(C(=O)N(C)Cc3ccccn3)cc2n1Cc1ccccc1F [Example 40, 2-n-Butyl-1-(2-Fluorobenzyl)-6-[N-Methyl-N-(2-Pyridylmethyl)Carbamoyl]Benzimidazole]",97 to 100 °C
6,"Cc1nc2ccc(C(=O)NS(=O)(=O)c3ccccc3)cc2n1Cc1ccccc1Cl [Example 111, 6-Benzenesulfonylcarbamoyl-1-(2-Chlorobenzyl)-2-Methylbenzimidazole]",273.5 to 274.3 °C
7,"Cc1nc2ccc(C=CC(=O)NS(=O)(=O)c3ccccc3)cc2n1Cc1ccccc1Cl [Example 126, N-Benzenesulfonyl-3-[1-(2-Chlorobenzyl)-2-Methylbenzimidazole-6-yl]Acrylamide]",243.1 to 244.3 °C
8,"Cc1nc2ccc(C(=O)NS(=O)(=O)c3cccc(Cl)c3)cc2n1Cc1ccccc1Cl [Example 156, 6-(3-Chlorobenzenesulfonylcarbamoyl)-1-(2-Chlorobenzyl)-2-Methylbenzimidazole]",254.5 to 257.5 °C (dec.)
9,"COc1ccc(S(=O)(=O)NC(=O)c2ccc3nc(C)n(Cc4ccccc4Cl)c3c2)cc1 [Example 162, 1-(2-Chlorobenzyl)-6-(4-Methoxybenzenesulfonylcarbamoyl)-2-Methylbenzimidazole]",271 to 274 °C
10,"Cc1nc2ccc(C(=O)NS(=O)(=O)Cc3ccccc3)cc2n1Cc1ccccc1Cl [Example 163, 1-(2-Chlorobenzyl)-2-Methyl-6-(α-Toluenesulfonylcarbamoyl)Benzimidazole]",193 to 196 °C

# Results, then the molecule that gave them:
row,melting point,Compound
1,266.5 to 267.5 °C,"Cc1ccc(C)c(S(=O)(=O)NC(=O)c2ccc3nc(C)n(Cc4ccccc4Cl)c3c2)c1 [Example 164, 1-(2-Chlorobenzyl)-6-(2,5-Dimethylbenzenesulfonylcarbamoyl)-2-Methylbenzimidazole]"
2,330 to 332 °C,"Cc1nc2ccc(C(=O)NS(=O)(=O)c3ccc([N+](=O)[O-])cc3)cc2n1Cc1ccccc1Cl [Example 165, 1-(2-Chlorobenzyl)-2-Methyl-6-(4-Nitrobenzenesulfonylcarbamoyl)Benzimidazole]"
3,288 to 292 °C,"Cc1nc2ccc(C(=O)NS(=O)(=O)c3ccc(C(F)(F)F)cc3)cc2n1Cc1ccccc1Cl [Example 166, 1-(2-Chlorobenzyl)-2-Methyl-6-[4(Trifluoromethyl)Benzenesulfonylcarbamoyl]Benzimidazole]"
4,264 to 267 °C,"Cc1nc2ccc(C(=O)NS(=O)(=O)c3ccccc3Cl)cc2n1Cc1ccccc1Cl.N [Example 167, 6-(2-Chlorobenzenesulfonylcarbamoyl)-1-(2-Chlorobenzyl)-2-Methylbenzimidazole Ammonium Salt]"
5,352.5 to 355 °C,"Nc1nc2ccc(C(=O)NS(=O)(=O)c3ccccc3)cc2n1Cc1ccc(-c2ccccc2)cc1 [Example 172, 2-Amino-6-Benzenesulfonylcarbamoyl-1-(Biphenyl-4-ylmethyl)Benzimidazole]"
6,229.8 to 233 °C,"Cc1nc2ccc(CCC(=O)NS(=O)(=O)c3ccccc3)cc2n1Cc1ccccc1Cl [Example 200, N-Benzenesulfonyl-3-[1-(2-chlorobenzyl)-2-methylbenzimidazole-6-yl]propionamide]"
7,111 to 112.4 °C,"CCCCS(=O)(=O)NC(=O)c1ccc2nc(C)n(Cc3ccc(C(=O)c4ccccc4)cc3)c2c1 [Example 300, 1-[(4-Benzoyl)benzyl]-6-(1-Butanesulfonylcarbamoyl)-2-Methylbenzimidazole]"
